The experiment addresses T1, Bile acid receptor (Homo sapiens, UniProt Q96RI1).
T1 sequence (Q96RI1 whole entry): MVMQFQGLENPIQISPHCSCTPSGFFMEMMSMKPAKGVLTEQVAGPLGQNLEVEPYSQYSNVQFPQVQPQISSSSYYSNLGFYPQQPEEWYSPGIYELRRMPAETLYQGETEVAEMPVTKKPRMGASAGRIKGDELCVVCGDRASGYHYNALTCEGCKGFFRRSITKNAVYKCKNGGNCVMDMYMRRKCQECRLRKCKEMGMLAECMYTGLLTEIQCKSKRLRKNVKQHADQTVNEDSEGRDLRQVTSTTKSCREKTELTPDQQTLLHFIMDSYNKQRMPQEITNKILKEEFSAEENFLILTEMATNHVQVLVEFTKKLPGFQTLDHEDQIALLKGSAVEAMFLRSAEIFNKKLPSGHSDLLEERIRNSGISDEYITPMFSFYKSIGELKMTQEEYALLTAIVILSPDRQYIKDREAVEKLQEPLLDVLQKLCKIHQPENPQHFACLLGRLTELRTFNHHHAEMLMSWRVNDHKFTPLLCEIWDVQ
Kind of experiment: Antagonist activity at human FXR expressed in COS1 cells assessed as inhibition of CDCA-induced receptor activation after 2 days by luciferase reporter gene assay. Format: cell-based.

Results on one molecule are retold here after ChEMBL document CHEMBL4007446, “Synthesis and biological evaluations of chalcones, flavones and chromenes as farnesoid x receptor (FXR) antagonists” (Eur J Med Chem, 2017).

By IC50 is commonly meant the concentration that gives 50% inhibition.

With `CC(C)(C)n1ncc(C(=O)Nc2ccc3cnn(CC4CCN(c5ccc(C(=O)O)cc5)CC4)c3c2)c1-c1ccc(F)cc1`, the IC50 is 1 nM.
